Kd and inhibition data for 21 compounds are collected here from patent US11053241B2, “TYK2 inhibitors and uses thereof” (Nimbus Lakshmi, Inc., priority 2018, dated 2021).

The target in experiment [1] is human TYK2 (JH2domain-pseudokinase) (Homo sapiens (Human), UniProt P29597). Put plainly: TYK2 JH2 Domain Binding Assay (KINOMEscan). The following applies: 11-point 3-fold dilution, top concentration 30,000 nM, duplicate. An outline of the steps:
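Competition binding used an NFkB-DNA-tagged fusion of TYK2 JH2 (G556–D888) expressed in HEK293 extracts against an immobilised ligand, 1 h at room temperature. Bead-bound kinase was quantified by qPCR. Kd came from an 11-point 3-fold series with a 30,000 nM top concentration and 0.9% DMSO, Hill slope −1, run in duplicate.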

The next experiment has as its target JAK2 kinase domain (JH1) (Homo sapiens (Human), UniProt O60674). Put plainly: JAK2 Radioactive Kinase Assay. The experiment is classed as biochemical. The following applies: compound at 10 μM; ATP at 10 μM; substrate poly[Glu:Tyr](4:1). How it is done:
(§1) Peptide substrate, [KKSRGDYMTMQIG], (20 μM) was prepared in reaction buffer (20 mM Hepes pH 7.5, 10 mM MgCl2, 1 mM EGTA, 0.02% Brij35, 0.02 mg/mL BSA, 0.1 mM […], 2 mM DTT, 1% DMSO). TYK2 (Invitrogen) kinase was added, followed by compounds in DMSO. ^33PATP was added to initiate the reaction in ATP at 10 μM. The kinase reaction was incubated for 120 min at room temp and reactions were spotted onto P81 ion exchange paper (Whatman #3698-915), and then washed extensively in 0.75% phosphoric acid, prior to reading the radioactivity counts. For JAK2 (Invitrogen) kinase assay the peptide substrate poly[Glu:Tyr](4:1), 0.2 mg/ml was used, in the reaction carried out the same as for TYK2.
(§2) The TYK2 and JAK2 radioactive kinase assay measures the percent inhibition at the TYK2 kinase domain (JH1) and the percent inhibition at the JAK2 kinase domain (JH1). Results of the assay are expressed as percent inhibition at 10 μM.

The target in a further experiment is TYK2 kinase domain (JH1) (Homo sapiens (Human), UniProt P29597). Put plainly: TYK2 Radioactive Kinase Assay. It is filed as biochemical. As to conditions: compound at 10 μM; ATP at 10 μM; 120 min at room temp. On the procedure:
as §1, §2

Structures are written as SMILES.

Chain of JAK2 kinase domain (JH1) (O60674 849-1124): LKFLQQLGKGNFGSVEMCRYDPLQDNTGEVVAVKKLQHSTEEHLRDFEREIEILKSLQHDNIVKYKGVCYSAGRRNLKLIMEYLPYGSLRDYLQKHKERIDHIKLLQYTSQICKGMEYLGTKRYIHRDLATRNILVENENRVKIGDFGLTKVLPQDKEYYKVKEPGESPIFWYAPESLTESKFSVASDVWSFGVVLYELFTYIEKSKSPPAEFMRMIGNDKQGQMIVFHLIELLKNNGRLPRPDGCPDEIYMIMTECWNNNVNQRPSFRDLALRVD
Chain of TYK2 kinase domain (JH1) (P29597 897-1176): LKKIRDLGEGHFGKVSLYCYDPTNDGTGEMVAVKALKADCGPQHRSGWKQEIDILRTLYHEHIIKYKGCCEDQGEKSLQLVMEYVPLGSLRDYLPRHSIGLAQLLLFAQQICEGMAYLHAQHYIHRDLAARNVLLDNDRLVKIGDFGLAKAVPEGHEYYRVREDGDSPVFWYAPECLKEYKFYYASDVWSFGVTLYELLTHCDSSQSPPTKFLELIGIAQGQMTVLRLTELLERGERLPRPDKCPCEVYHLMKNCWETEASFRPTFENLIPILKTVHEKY
Chain of human TYK2 (JH2domain-pseudokinase) (P29597 556-888): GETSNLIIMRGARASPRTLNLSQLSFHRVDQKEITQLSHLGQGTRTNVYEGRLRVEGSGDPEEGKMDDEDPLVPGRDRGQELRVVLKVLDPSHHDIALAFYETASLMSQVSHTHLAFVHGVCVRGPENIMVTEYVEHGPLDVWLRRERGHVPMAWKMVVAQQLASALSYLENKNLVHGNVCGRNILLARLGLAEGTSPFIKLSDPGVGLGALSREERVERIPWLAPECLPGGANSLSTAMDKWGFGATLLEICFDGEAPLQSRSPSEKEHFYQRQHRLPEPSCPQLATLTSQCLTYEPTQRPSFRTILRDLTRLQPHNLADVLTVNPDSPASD

In experiment [1], `CNC(=O)c1cnc(NC(=O)C2CC2)c2[nH]c(-c3cccnc3OC3CC3)cc12` [Compound I-34, 7-(cyclopropanecarboxamido)-2-(2-cyclopropoxypyridin-3-yl)-N-methyl-1H-pyrrolo[2,3-c]pyridine-4-carboxamide] returned a Kd of less than 0.2 nM. For the same compound, the inhibition at 10 µM on JAK2 kinase domain (JH1) and on TYK2 kinase domain (JH1) was less than 50% each time.
Compound `[2H]C([2H])([2H])NC(=O)c1cnc(NC(=O)C2CC2)c2[nH]c(-c3cc(-c4ncn(C)n4)ccn3)cc12` [Compound I-16, 7-(cyclopropanecarboxamido)-N-(methyl-d3)-2-(4-(1-methyl-1H-1,2,4-triazol-3-yl)pyridin-2-yl)-1H-pyrrolo[2,3-c]pyridine-4-carboxamide] came in with a Kd in experiment [1] of less than 0.2 nM. Besides, the inhibition at 10 µM at JAK2 kinase domain (JH1) and at TYK2 kinase domain (JH1) was less than 50% throughout.
In the case of `CNC(=O)c1cnc(NC(=O)C2CC2)c2[nH]c(-c3cc(-c4ncn(C)n4)ccn3)cc12` [Compound I-13, 7-(cyclopropanecarboxamido)-N-methyl-2-(4-(1-methyl-1H-1,2,4-triazol-3-yl)pyridin-2-yl)-1H-pyrrolo[2,3-c]pyridine-4-carboxamide], in experiment [1], the Kd is less than 0.2 nM. Besides, the inhibition at 10 µM on JAK2 kinase domain (JH1) and at TYK2 kinase domain (JH1) was less than 50% throughout.
`CNC(=O)c1cnc(NC(=O)C2CC2)c2[nH]c(-c3ccc(N4CCCC4=O)cc3OC)cc12` [Compound I-26, 7-(cyclopropanecarboxamido)-2-(2-methoxy-4-(2-oxopyrrolidin-1-yl)phenyl)-N-methyl-1H-pyrrolo[2,3-c]pyridine-4-carboxamide] registered a Kd in experiment [1] of less than 0.2 nM. Also, the inhibition at 10 µM on JAK2 kinase domain (JH1) and on TYK2 kinase domain (JH1) was less than 50% each time.
For the compound `CNC(=O)c1cnc(NC(=O)C2CC2)c2[nH]c(-c3ccc4ccn(C)c4c3F)cc12` [Compound I-21, 7-(cyclopropanecarboxamido)-2-(7-fluoro-1-methyl-1H-indol-6-yl)-N-methyl-1H-pyrrolo[2,3-c]pyridine-4-carboxamide], the Kd in experiment [1] is less than 0.2 nM. The inhibition at 10 µM on JAK2 kinase domain (JH1) and at TYK2 kinase domain (JH1) was less than 50% each time.
In turn, `CNC(=O)c1cnc(NC(=O)C2CC2)c2[nH]c(-c3ccc4cn(C5CC5)nc4c3)cc12` [Compound I-20, 7-(cyclopropanecarboxamido)-2-(2-cyclopropyl-2H-indazol-6-yl)-N-methyl-1H-pyrrolo[2,3-c]pyridine-4-carboxamide] displayed a Kd in experiment [1] of 0.2 to 1 nM. In addition, the inhibition at 10 µM at JAK2 kinase domain (JH1) and at TYK2 kinase domain (JH1) was less than 50% throughout.
`CNC(=O)c1cnc(NC(=O)C2CC2)c2[nH]c(-c3cccc(-c4ncn(C)n4)c3F)cc12` [Compound I-36, 7-(cyclopropanecarboxamido)-2-(2-fluoro-3-(1-methyl-1H-1,2,4-triazol-3-yl)phenyl)-N-methyl-1H-pyrrolo[2,3-c]pyridine-4-carboxamide] returned a Kd in experiment [1] of less than 0.2 nM. Also, the inhibition at 10 µM at JAK2 kinase domain (JH1) and at TYK2 kinase domain (JH1) was less than 50% in each case.
Take `CNC(=O)c1cnc(NC(=O)C2CC2)c2[nH]c(-c3cccc(-n4cnnc4)c3)cc12` [Compound I-18, 2-(3-(4H-1,2,4-triazol-4-yl)phenyl)-7-(cyclopropanecarboxamido)-N-methyl-1H-pyrrolo[2,3-c]pyridine-4-carboxamide]: in experiment [1], the Kd lay within 0.2 to 1 nM. The inhibition at 10 µM on JAK2 kinase domain (JH1) and at TYK2 kinase domain (JH1) was less than 50% in each case.
For `CNC(=O)c1cnc(NC(=O)C2CC2)c2[nH]c(-c3cccc(-c4ncn(C)n4)n3)cc12` [Compound I-32, 7-(cyclopropanecarboxamido)-N-methyl-2-(6-(1-methyl-1H-1,2,4-triazol-3-yl)pyridin-2-yl)-1H-pyrrolo[2,3-c]pyridine-4-carboxamide], in experiment [1], the Kd was 0.2 to 1 nM. The inhibition at 10 µM on JAK2 kinase domain (JH1) and on TYK2 kinase domain (JH1) was less than 50% throughout.
Take `CNC(=O)CCCNc1ccc(-c2cc3c(C(=O)NC)cnc(NC(=O)C4CC4)c3[nH]2)c(OC)c1` [Compound I-30, 7-(cyclopropanecarboxamido)-2-(2-methoxy-4-((4-(methylamino)-4-oxobutyl)amino)phenyl)-N-methyl-1H-pyrrolo[2,3-c]pyridine-4-carboxamide]: the Kd in experiment [1] was less than 0.2 nM. In addition, the inhibition at 10 µM on JAK2 kinase domain (JH1) and on TYK2 kinase domain (JH1) was less than 50% each time.
Regarding `CNC(=O)c1cnc(NC(=O)C2CC2)c2[nH]c(-c3cccc(N4CCOCC4)c3F)cc12` [Compound I-22, 7-(cyclopropanecarboxamido)-2-(2-fluoro-3-morpholinophenyl)-N-methyl-1H-pyrrolo[2,3-c]pyridine-4-carboxamide], in experiment [1], the Kd was less than 0.2 nM. For the same compound, the inhibition at 10 µM on JAK2 kinase domain (JH1) and at TYK2 kinase domain (JH1) was less than 50% in each case.
Turning to `CNC(=O)c1cnc(NC(=O)C2CC2)c2[nH]c(-c3ccc(=O)n(C4CC4)c3)cc12` [Compound I-40, 7-(cyclopropanecarboxamido)-2-(1-cyclopropyl-6-oxo-1,6-dihydropyridin-3-yl)-N-methyl-1H-pyrrolo[2,3-c]pyridine-4-carboxamide], the Kd in experiment [1] fell in the range of 1 to 10 nM. For the same compound, the inhibition at 10 µM at JAK2 kinase domain (JH1) and at TYK2 kinase domain (JH1) was less than 50% each time.
Regarding `CNC(=O)c1cnc(NC(=O)C2CC2)c2[nH]c(-c3cc(-c4csc(C)n4)ccn3)cc12` [Compound I-10, 7-(cyclopropanecarboxamido)-N-methyl-2-(4-(2-methylthiazol-4-yl)pyridin-2-yl)-1H-pyrrolo[2,3-c]pyridine-4-carboxamide], the Kd in experiment [1] is 0.2 to 1 nM. The inhibition at 10 µM at JAK2 kinase domain (JH1) and at TYK2 kinase domain (JH1) was less than 50% each time.
In experiment [1], `CNC(=O)c1cnc(NC(=O)C2CC2)c2[nH]c(-c3cc(-n4ccc(C)n4)ccn3)cc12` [Compound I-17, 7-(cyclopropanecarboxamido)-N-methyl-2-(4-(3-methyl-1H-pyrazol-1-yl)pyridin-2-yl)-1H-pyrrolo[2,3-c]pyridine-4-carboxamide] showed a Kd of 0.2 to 1 nM. Moreover, the inhibition at 10 µM on JAK2 kinase domain (JH1) and at TYK2 kinase domain (JH1) was less than 50% throughout.
In the case of `[2H]C([2H])([2H])NC(=O)c1cnc(NC(=O)C2CC2)c2[nH]c(-c3ccccc3)cc12` [Compound I-3, 7-(cyclopropanecarboxamido)-N-(methyl-d3)-2-phenyl-1H-pyrrolo[2,3-c]pyridine-4-carboxamide], in experiment [1], the Kd lay in the range of 0.2 to 1 nM. Further, the inhibition at 10 µM on JAK2 kinase domain (JH1) and on TYK2 kinase domain (JH1) was less than 50% each time.
In experiment [1], `CNC(=O)c1cnc(NC(=O)C2CC2)c2[nH]c(-c3cccc(-c4cnc(C)cn4)c3)cc12` [Compound I-27, 7-(cyclopropanecarboxamido)-N-methyl-2-(3-(5-methylpyrazin-2-yl)phenyl)-1H-pyrrolo[2,3-c]pyridine-4-carboxamide] registered a Kd of less than 0.2 nM. Further, the inhibition at 10 µM on JAK2 kinase domain (JH1) and at TYK2 kinase domain (JH1) was less than 50% throughout.
Turning to `CNC(=O)c1ccc(-c2cc3c(C(=O)NC)cnc(NC(=O)C4CC4)c3[nH]2)c(OC)c1` [Compound I-29, 7-(cyclopropanecarboxamido)-2-(2-methoxy-4-(methylcarbamoyl)phenyl)-N-methyl-1H-pyrrolo[2,3-c]pyridine-4-carboxamide], in experiment [1], the Kd lay within 0.2 to 1 nM. In addition, the inhibition at 10 µM on JAK2 kinase domain (JH1) and at TYK2 kinase domain (JH1) was less than 50% in each case.
On to `CNC(=O)c1cnc(NC(=O)C2CC2)c2[nH]c(-c3cccc(-c4nc(C)n(C)n4)c3)cc12` [Compound I-28, 7-(cyclopropanecarboxamido)-2-(3-(1,5-dimethyl-1H-1,2,4-triazol-3-yl)phenyl)-N-methyl-1H-pyrrolo[2,3-c]pyridine-4-carboxamide], for which the Kd in experiment [1] was in the range of 0.2 to 1 nM. Further, the inhibition at 10 µM at JAK2 kinase domain (JH1) and on TYK2 kinase domain (JH1) was less than 50% each time.
The compound `CNC(=O)c1cnc(NC(=O)C2CC2)c2[nH]c(-c3cccc(-n4ccc(C)n4)c3)cc12` [Compound I-7, 7-(cyclopropanecarboxamido)-N-methyl-2-(3-(3-methyl-1H-pyrazol-1-yl)phenyl)-1H-pyrrolo[2,3-c]pyridine-4-carboxamide] gave a Kd in experiment [1] of 0.2 to 1 nM. Also, the inhibition at 10 µM at JAK2 kinase domain (JH1) and on TYK2 kinase domain (JH1) was less than 50% in each case.
Compound `CNC(=O)c1cnc(NC(=O)C2CC2)c2[nH]c(-c3cccc(C4=NC(C)(C)CS4)c3)cc12` [Compound I-11, 7-(cyclopropanecarboxamido)-2-(3-(4,4-dimethyl-4,5-dihydrothiazol-2-yl)phenyl)-N-methyl-1H-pyrrolo[2,3-c]pyridine-4-carboxamide] had a Kd in experiment [1] of 0.2 to 1 nM. For the same compound, the inhibition at 10 µM on JAK2 kinase domain (JH1) and at TYK2 kinase domain (JH1) was less than 50% throughout.
On to `CNC(=O)c1cnc(NC(=O)C2CC2)c2[nH]c(-c3cc(-c4ncco4)ccn3)cc12` [Compound I-15, 7-(cyclopropanecarboxamido)-N-methyl-2-(4-(oxazol-2-yl)pyridin-2-yl)-1H-pyrrolo[2,3-c]pyridine-4-carboxamide], for which the dissociation constant (Kd) in experiment [1] lay within 0.2 to 1 nM. The inhibition at 10 µM on JAK2 kinase domain (JH1) and at TYK2 kinase domain (JH1) was less than 50% each time.
